Reference: article PMC9103414 (Journal of pharmacological and toxicological methods, 2022)
Where a name gives a salt, the structure may show the parent alone. Read-outs that look alike come from different tables or passages of the source. Marks after values point to notes of the source that are not given here.

Legend:
[1] = cited from earlier work; for Plasma concentrations reach steady state by day: daily dosage, ref Min, et al.; for Cmax: read-out: Plasma Cmax, ref Food and Drug Administration New Drug Applications for each antiretroviral
hiPSC-neurons [2] = assay: HCA of synapses; format: cell-based, human
hiPSC-neurons [3] = details: for Neuronal Viability (percentage of live neuronal nuclei), reduction vs DMSO / Neuronal Viability, change vs DMSO: Fig. 1B; for Total Neurite Length (per cm^2 image area), reduction vs DMSO: Fig. 1C; for Neuronal Viability, reduction vs DMSO: Fig. 2D
hiPSC-neurons [4] = assay: Calcium KIC assay; format: cell-based, human; details: each ARV at 10 μM, 7 days; for Calcium transient activity compared to DMSO (traces): Fig. 5, Fig. S1; for Percent active hiPSC-neurons, reduction vs DMSO: Fig. 6D; for Number of active neurons with detectable increases in calcium fluorescence: six wells per condition, Fig. 5 (DMSO: 1034 cells)
[5] = test system: primary embryonic rat neurons; details: ref Stern, et al., 2018, cited from earlier work; for Number of MAP2+ neurons: 10 μM
hNPCs [6] = assay: Microscopic Imaging of Epigenetic Landscapes; format: cell-based, human; details: for Samples classified correctly by discriminant analysis: H3K27me3/H3K27ac and H3K9me3/H3K4me1 confusion matrices, Fig. 7D, E
hNPCs [7] = assay: hNPC viability; format: cell-based, human; details: Fig. 7A
murine NPCs = details: ref Demir & Laywell, 2015; P. Xu, et al., 2017; cited from earlier work
hiPSC-microglia = details: cited from earlier work
[8] = lower concentrations (0.1, 1 μM), 7 days
[9] = 25 μM (inhibiting myosin activity)

## C[C@@H]1CCO[C@H]2Cn3cc(C(=O)NCc4ccc(F)cc4F)c(=O)c(O)c3C(=O)N12 [DTG, dolutegravir]
[1]; healthy volunteers, 2010
  Plasma concentrations reach steady state by day: ≤ 5 days
[1]; people with HIV, 2011
  Plasma concentrations reach steady state by day: ≤ 7 days
[1]
  Cmax: 8 µM
hiPSC-neurons [2]; 0.1 μM, 7 days, Fig. 3C
  Synapses/Neurite Length, reduction vs DMSO: 20%
hiPSC-neurons [2]; 1 μM, 7 days, Fig. 3B
  Synapse Density, reduction vs DMSO: 30%
hiPSC-neurons [2]; 1 μM, 7 days, Fig. 3C
  Synapses/Neurite Length, reduction vs DMSO: 30%
hiPSC-neurons [2]; 10 μM, 7 days, Fig. 3C
  Synapses/Neurite Length, reduction vs DMSO: no effect
hiPSC-neurons [2]; each ARV at 10 μM, 7 days
  Synapse Density, percent difference between ARV treatment and DMSO control: −10(NS) percent
hiPSC-neurons [3]; 10 μM, 7 days
  Neuronal Viability (percentage of live neuronal nuclei), reduction vs DMSO: 30%
  Total Neurite Length (per cm^2 image area), reduction vs DMSO: 20%
hiPSC-neurons [3]; 10 μM, 7 days, Fig. 1D
  Neurite Length per Neuron, increase vs DMSO: 20%
hiPSC-neurons [3]; each ARV at 10 μM, 7 days
  Total Neurite Length, percent difference between ARV treatment and DMSO control: −14(NS) percent
  Neuronal Viability, reduction vs DMSO: 20%
hiPSC-neurons [4]
  Event Frequency, percent difference between ARV treatment and DMSO control: −10(NS) percent
  Mean Peak Amplitude, percent difference between ARV treatment and DMSO control: −35(NS) percent
  Percent Active, percent difference between ARV treatment and DMSO control: −30 ^* percent
  Calcium transient activity compared to DMSO (traces): less calcium transient activity compared to DMSO
  Percent active hiPSC-neurons, reduction vs DMSO: 30%
  Number of active neurons with detectable increases in calcium fluorescence: 716 cells

## COc1cc2c(cc1Cc1cccc(Cl)c1F)c(=O)c(C(=O)O)cn2[C@H](CO)C(C)C [EVG, elvitegravir]
hiPSC-neurons [2]; 0.1 μM, 7 days, Fig. 3B
  Synapse Density (synapses per cm^2 imaging area), reduction vs DMSO: 20%
hiPSC-neurons [2]; 0.1 μM, 7 days, Fig. 3C
  Synapses/Neurite Length, reduction vs DMSO: 25%
hiPSC-neurons [2]; 1 μM, 7 days, Fig. 3C
  Synapses/Neurite Length, reduction vs DMSO: no effect
hiPSC-neurons [2]; 10 μM, 7 days, Fig. 3B
  Synapse Density, reduction vs DMSO: 75%
hiPSC-neurons [2]; 10 μM, 7 days, Fig. 3C
  Synapses/Neurite Length, increase vs DMSO: 20%
hiPSC-neurons [2]; each ARV at 10 μM, 7 days
  Synapse Density, percent difference between ARV treatment and DMSO control: −90 ^*** percent
hiPSC-neurons [2]; each ARV at 10 μM, 7 days, Fig. 4C
  Synapse Density, reduction vs DMSO: 90%
hiPSC-neurons [3]; 10 μM, 7 days
  Neuronal Viability (percentage of live neuronal nuclei), reduction vs DMSO: 65%
  Total Neurite Length (per cm^2 image area), reduction vs DMSO: 80%
hiPSC-neurons [3]; 10 μM, 7 days, Fig. 1D
  Neurite Length per Neuron, lower than DMSO: 50%
hiPSC-neurons [3]; each ARV at 10 μM, 7 days
  Total Neurite Length, percent difference between ARV treatment and DMSO control: −85 ^*** percent
  Neuronal Viability, reduction vs DMSO: 80%
hiPSC-neurons [3]; each ARV at 10 μM, 7 days, Fig. 2E
  Total Neurite Length, reduction vs DMSO: 85%
hiPSC-neurons [3]; [8]
  Neuronal Viability, change vs DMSO: did not observe changes
[5]; four days
  Number of MAP2+ neurons: significantly reduced the number of MAP2+ neurons
[5]; two days
  Number of MAP2+ neurons: not two days
[5]; 0.1 and 1 μM
  Neurotoxicity: not neurotoxic
hiPSC-neurons [4]
  Event Frequency, percent difference between ARV treatment and DMSO control: −40 ^** percent
  Mean Peak Amplitude, percent difference between ARV treatment and DMSO control: −55 ^** percent
  Percent Active, percent difference between ARV treatment and DMSO control: −90 ^*** percent
  Calcium transient activity compared to DMSO (traces): virtually inactive
  Percent active hiPSC-neurons, reduction vs DMSO: 90%
  Number of active neurons with detectable increases in calcium fluorescence: 31 cells
hiPSC-neurons [4]; Fig. 6E
  Calcium transient event frequency, reduction vs DMSO: 40%
hiPSC-neurons [4]; Fig. 6F
  Calcium transient mean peak amplitude, reduction vs DMSO: 55%

## Nc1nc(=O)n([C@@H]2CS[C@H](CO)O2)cc1F [FTC, emtricitabine]
[1]
  Cmax: 7 µM
hiPSC-neurons [2]; 0.1 μM, 7 days, Fig. 3C
  Synapses/Neurite Length, reduction vs DMSO: 20%
hiPSC-neurons [2]; 1 μM, 7 days, Fig. 3B
  Synapse Density, reduction vs DMSO: 20%
hiPSC-neurons [2]; 1 μM, 7 days, Fig. 3C
  Synapses/Neurite Length, reduction vs DMSO: 20%
hiPSC-neurons [2]; 10 μM, 7 days, Fig. 3B
  Synapse Density, reduction vs DMSO: 30%
hiPSC-neurons [2]; 10 μM, 7 days, Fig. 3C
  Synapses/Neurite Length, reduction vs DMSO: 30%
hiPSC-neurons [2]; each ARV at 10 μM, 7 days
  Synapse Density, percent difference between ARV treatment and DMSO control: −10(NS) percent
hiPSC-neurons [3]; any tested concentration (0.1, 1, 10 μM), 7 days
  Neuronal Viability, change vs DMSO: did not observe changes
hiPSC-neurons [3]; each ARV at 10 μM, 7 days
  Total Neurite Length, percent difference between ARV treatment and DMSO control: −6(NS) percent
hiPSC-neurons [4]
  Mean Peak Amplitude, percent difference between ARV treatment and DMSO control: −10(NS) percent
  Number of active neurons with detectable increases in calcium fluorescence: 1003 cells

## CCCc1cc(C)[nH]c(=O)c1CNC(=O)c1cc(-c2ccnc(N3CCN(C)CC3)c2)cc2c1cnn2C(C)C [GSK343]
hNPCs [6]; 10 μM
  Samples classified correctly by discriminant analysis: 100%
hNPCs [7]; 10 μM, three days
  hNPC viability, reduction vs DMSO: 50%

## O=C(CCCCCCC(=O)Nc1ccccc1)NO [SAHA]
hNPCs [6]; 3 μM
  Samples classified correctly by discriminant analysis: 100%
hNPCs [7]; 3 μM
  hNPC viability, reduction vs DMSO: 45%

## CC(C)OC(=O)OCOP(=O)(CO[C@H](C)Cn1cnc2c(N)ncnc21)OCOC(=O)OC(C)C [TDF, tenofovir disoproxil fumarate]
hNPCs [6]; 10 μM, three days, Fig. 7B–E
  Effect on epigenetic landscape (H3K27me3/H3K27ac and H3K9me3/H3K4me1 MIEL analysis): altered the epigenetic landscape
[1]
  Cmax: 0.6 µM
hiPSC-neurons [2]; 0.1 μM, 7 days, Fig. 3C
  Synapses/Neurite Length, reduction vs DMSO: 20%
hiPSC-neurons [2]; 1 μM, 7 days, Fig. 3B
  Synapse Density, reduction vs DMSO: 30%
hiPSC-neurons [2]; 1 μM, 7 days, Fig. 3C
  Synapses/Neurite Length, reduction vs DMSO: 25%
hiPSC-neurons [2]; 10 μM, 7 days, Fig. 3B
  Synapse Density, reduction vs DMSO: 40%
hiPSC-neurons [2]; 10 μM, 7 days, Fig. 3C
  Synapses/Neurite Length, reduction vs DMSO: 20%
hiPSC-neurons [3]; 10 μM, 7 days
  Neuronal Viability (percentage of live neuronal nuclei), reduction vs DMSO: 35%
  Total Neurite Length (per cm^2 image area), reduction vs DMSO: 20%
hiPSC-neurons [3]; each ARV at 10 μM, 7 days
  Neuronal Viability, reduction vs DMSO: 30%
hiPSC-neurons [3]; [8]
  Neuronal Viability, change vs DMSO: did not observe changes
Murine NPCs
  Viability of murine NPCs: reduce the viability
hiPSC-neurons [4]
  Mean Peak Amplitude, percent difference between ARV treatment and DMSO control: +20(NS) percent
  Percent Active, percent difference between ARV treatment and DMSO control: −10(NS) percent
  Number of active neurons with detectable increases in calcium fluorescence: 729 cells
hNPCs [7]; 10 μM, three days
  hNPC viability, reduction vs DMSO: 30%

## O=C1Nc2ccc(Cl)cc2[C@@](C#CC2CC2)(C(F)(F)F)O1 [efavirenz]
hiPSC-microglia
  Inflammation in hiPSC-microglia: increased inflammation
  Phagocytosis in hiPSC-microglia: reduced phagocytosis

## C[C@@H]1CCN(C(=O)CC#N)C[C@@H]1N(C)c1ncnc2[nH]ccc12 [tofacitinib]
hNPCs [7]; 1 μM
  hNPC viability, effect: not affected

## Cc1cn([C@H]2C[C@H](N=[N+]=[N-])[C@@H](CO)O2)c(=O)[nH]c1=O [zidovidine]
Murine NPCs
  Viability of murine NPCs: reduce the viability

## para-nitroblebbistatin
hiPSC-neurons [2]; 25 μM, 7 days, Fig. 3B
  Synapse Density, reduction vs DMSO: 30%
hiPSC-neurons [2]; 25 μM, 7 days, Fig. 3C
  Synapses/Neurite Length, reduction vs DMSO: 20%
hiPSC-neurons [2]; 25 μM, one day, Fig. 4A
  Synapse Density, increase vs DMSO: 20%
hiPSC-neurons [3]; [9]
  Neurite length, effect: did not affect
  Neuron viability, effect: did not affect
hiPSC-neurons [3]; 25 μM, one day, Fig. 2B
  Total Neurite Length, increase vs DMSO: 15%
